PubChem BioAssay AID248 (DTP/NCI, 2004)
“And” between values parts separate entries of the source, which are not always exact repeats. Identical values can stand only once. Inconclusive results and toxic doses are left out. Cut-off read from the data, not from the text of the source: active = T/C of 150% or more; inactive = T/C below 125%. Numbered stars: 1 amine (or outer) side, 2 acyl side, 3 side chain; on linkers, the order of the positions; unused ones are H or OH. Bridge positions count the residues as written; N and C are the ends. Square brackets hold non-standard residues; d marks the D form. Peptide text beside a SMILES is read from it. I, II: the chains in the order shown. Actinocin(9to1) = Cc1c2oc3c(C)ccc(C(=O)[*:1])c3nc-2c(C(=O)[*:2])c(N)c1=O; aThr = C[C@H](O)[C@H](N)C(=O)O; NMeV = CN[C@H](C(=O)O)C(C)C; Sar = CNCC(=O)O

System: L1210 leukemia ip in BDF1 mice, survival T/C
Assay: NCI In Vivo Anticancer Drug Screen. Data for tumor model L1210 Leukemia (intraperitoneal) in B6D2F1 (BDF1) mice
Conditions: higher = longer survival
In short: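 Transplantable tumor model; survival measured in treated vs vehicle control mice. Value = treated/control.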

Measured: T/C

Cc1c2oc3c(C)ccc(C(=O)N[C@@H]4C(=O)N[C@H](C(C)C)C(=O)N5CCC[C@H]5C(=O)N(C)CC(=O)N(C)[C@@H](C(C)C)C(=O)O[C@H]4C)c3nc-2c(C(=O)N[C@@H]2C(=O)N[C@H](C(C)C)C(=O)N3CCC[C@H]3C(=O)N(C)CC(=O)N(C)[C@@H](C(C)C)C(=O)O[C@H]2C)c(N)c1=O (I: [aThr][dV]P[Sar][NMeV] / II: [aThr][dV]P[Sar][NMeV]; ester I:1-I:C, II:1-II:C; linker I:N-II:N via Actinocin(9to1))
inactive: endpoint: mean survival time, dose: 0.02 mg/kg/injection, schedule: Q04DX003 (ip), vehicle: water 102 % of control and 105 % of control | endpoint: mean survival time, dose: 0.03 mg/kg/injection, schedule: Q01DX009 (ip), vehicle: saline 111 % of control | endpoint: mean survival time, dose: 0.03 mg/kg/injection, schedule: Q04DX003 (ip), vehicle: water 105 % of control and 110 % of control | endpoint: mean survival time, dose: 0.05 mg/kg/injection, schedule: Q01DX009 (ip), vehicle: saline 111 % of control | endpoint: mean survival time, dose: 0.05 mg/kg/injection, schedule: Q04DX003 (ip), vehicle: other 103 % of control | endpoint: mean survival time, dose: 0.1 mg/kg/injection, schedule: Q01DX009 (ip), vehicle: saline + alcohol 103 % of control | endpoint: mean survival time, dose: 0.11 mg/kg/injection, schedule: Q01DX001 (ip), vehicle: saline 108 % of control | endpoint: mean survival time, dose: 0.12 mg/kg/injection, schedule: Q01DX Z (ip), vehicle: carboxymethylcellulose (CMC) 102 % of control | endpoint: mean survival time, dose: 0.13 mg/kg/injection, schedule: Q01DX009 (ip), vehicle: saline 103 % of control | endpoint: mean survival time, dose: 0.15 mg/kg/injection, schedule: Q02DX010 (ip), vehicle: carboxymethylcellulose (CMC) 104 % of control | endpoint: mean survival time, dose: 0.16 mg/kg/injection, schedule: Q01DX Z (ip), vehicle: carboxymethylcellulose (CMC) 94 % of control | endpoint: mean survival time, dose: 0.16 mg/kg/injection, schedule: Q## X032 (ip), vehicle: saline 107 % of control | endpoint: mean survival time, dose: 0.2 mg/kg/injection, schedule: Q01DX009 (ip), vehicle: saline 109 % of control | endpoint: mean survival time, dose: 0.22 mg/kg/injection, schedule: Q02DX010 (ip), vehicle: other 100 % of control | endpoint: mean survival time, dose: 0.23 mg/kg/injection, schedule: Q02DX010 (ip), vehicle: carboxymethylcellulose (CMC) 92 % of control | endpoint: mean survival time, dose: 0.24 mg/kg/injection, schedule: Q## X032 (ip), vehicle: saline 109 % of control | endpoint: mean survival time, dose: 0.3 mg/kg/injection, schedule: Q## X032 (ip), vehicle: saline 110 % of control | endpoint: mean survival time, dose: 1.0 mg/kg/injection, schedule: Q## X004 (ip), vehicle: saline 101 % of control | endpoint: mean survival time, dose: 0.7 micrograms/kg/injection, schedule: Q01DX009 (ip), vehicle: saline 100 % of control and 104 % of control | endpoint: mean survival time, dose: 0.8 micrograms/kg/injection, schedule: Q01DX Z (ip), vehicle: saline 104 % of control | endpoint: mean survival time, dose: 1.5 micrograms/kg/injection, schedule: Q01DX009 (ip), vehicle: saline 97 % of control and 104 % of control | endpoint: mean survival time, dose: 3.0 micrograms/kg/injection, schedule: Q01DX009 (ip), vehicle: saline 102 % of control and 104 % of control | endpoint: mean survival time, dose: 3.1 micrograms/kg/injection, schedule: Q01DX001 (ip), vehicle: saline 100 % of control | endpoint: mean survival time, dose: 3.2 micrograms/kg/injection, schedule: Q01DX Z (ip), vehicle: saline 107 % of control | endpoint: mean survival time, dose: 3.5 micrograms/kg/injection, schedule: Q01DX009 (ip), vehicle: saline 97 % of control | endpoint: mean survival time, dose: 3.5 micrograms/kg/injection, schedule: Q01DX Z (ip), vehicle: carboxymethylcellulose (CMC) 109 % of control | endpoint: mean survival time, dose: 4.0 micrograms/kg/injection, schedule: Q01DX009 (ip), vehicle: water 103 % of control and 106 % of control | endpoint: mean survival time, dose: 5.4 micrograms/kg/injection, schedule: Q01DX Z (ip), vehicle: carboxymethylcellulose (CMC) 111 % of control | endpoint: mean survival time, dose: 6.3 micrograms/kg/injection, schedule: Q01DX001 (ip), vehicle: saline 107 % of control | endpoint: mean survival time, dose: 12.0 micrograms/kg/injection, schedule: Q01DX006 (iv), vehicle: other 103 % of control | endpoint: mean survival time, dose: 12.0 micrograms/kg/injection, schedule: Q01DX Z (im), vehicle: other 103 % of control | endpoint: mean survival time, dose: 12.0 micrograms/kg/injection, schedule: Q01DX Z (sc), vehicle: other 105 % of control | endpoint: mean survival time, dose: 12.5 micrograms/kg/injection, schedule: Q01DX001 (ip), vehicle: saline 101 % of control | endpoint: mean survival time, dose: 12.5 micrograms/kg/injection, schedule: Q01DX009 (ip), vehicle: water 103 % of control | endpoint: mean survival time, dose: 17.0 micrograms/kg/injection, schedule: Q04DX002 (ip), vehicle: saline 97 % of control and 100 % of control | endpoint: mean survival time, dose: 20.0 micrograms/kg/injection, schedule: Q01DX015 (ip), vehicle: saline 108 % of control | endpoint: mean survival time, dose: 25.0 micrograms/kg/injection, schedule: Q01DX001 (ip), vehicle: saline 111 % of control | endpoint: mean survival time, dose: 25.0 micrograms/kg/injection, schedule: Q01DX009 (ip), vehicle: water 106 % of control | endpoint: mean survival time, dose: 25.0 micrograms/kg/injection, schedule: Q01DX Z (sc), vehicle: other 103 % of control | endpoint: mean survival time, dose: 35.0 micrograms/kg/injection, schedule: Q04DX002 (ip), vehicle: saline 103 % of control and 106 % of control | endpoint: mean survival time, dose: 40.0 micrograms/kg/injection, schedule: Q01DX Z (ip), vehicle: carboxymethylcellulose (CMC) 110 % of control | endpoint: mean survival time, dose: 50.0 micrograms/kg/injection, schedule: Q01DX001 (ip), vehicle: saline 109 % of control | endpoint: mean survival time, dose: 50.0 micrograms/kg/injection, schedule: Q01DX009 (ip), vehicle: water 105 % of control | endpoint: mean survival time, dose: 50.0 micrograms/kg/injection, schedule: Q01DX Z (oral), vehicle: other 111 % of control | endpoint: mean survival time, dose: 60.0 micrograms/kg/injection, schedule: Q01DX Z (ip), vehicle: carboxymethylcellulose (CMC) 100 % of control | endpoint: mean survival time, dose: 64.0 micrograms/kg/injection, schedule: Q01DX001 (ip), vehicle: clinical formulation 107 % of control | endpoint: mean survival time, dose: 64.0 micrograms/kg/injection, schedule: Q01DX001 (ip), vehicle: saline 104 % of control | endpoint: mean survival time, dose: 64.0 micrograms/kg/injection, schedule: Q01DX009 (ip), vehicle: clinical formulation 103 % of control | endpoint: mean survival time, dose: 70.0 micrograms/kg/injection, schedule: Q04DX002 (ip), vehicle: saline 109 % of control | endpoint: mean survival time, dose: 100.0 micrograms/kg/injection, schedule: Q01DX001 (ip), vehicle: saline 109 % of control | endpoint: mean survival time, dose: 100.0 micrograms/kg/injection, schedule: Q01DX009 (ip), vehicle: saline + alcohol 103 % of control | endpoint: mean survival time, dose: 100.0 micrograms/kg/injection, schedule: Q01DX Z (ip), vehicle: other 101 % of control | endpoint: mean survival time, dose: 100.0 micrograms/kg/injection, schedule: Q01DX Z (oral), vehicle: other 107 % of control | endpoint: mean survival time, dose: 128.0 micrograms/kg/injection, schedule: Q01DX001 (ip), vehicle: clinical formulation 109 % of control | endpoint: mean survival time, dose: 128.0 micrograms/kg/injection, schedule: Q01DX001 (ip), vehicle: saline 109 % of control | endpoint: mean survival time, dose: 140.0 micrograms/kg/injection, schedule: Q04DX002 (ip), vehicle: saline 93 % of control and 102 % of control | endpoint: mean survival time, dose: 280.0 micrograms/kg/injection, schedule: Q04DX002 (ip), vehicle: saline 106 % of control | endpoint: mean survival time, dose: 512.0 micrograms/kg/injection, schedule: Q04DX003 (ip), vehicle: water 100 % of control | endpoint: mean survival time, dose: 570.0 micrograms/kg/injection, schedule: Q04DX002 (ip), vehicle: saline 100 % of control | endpoint: median survival time, dose: 0.01 mg/kg/injection, schedule: Q01DX009 (ip), vehicle: water 107 % of control | endpoint: median survival time, dose: 0.02 mg/kg/injection, schedule: Q01DX009 (ip), vehicle: water 109 % of control (2×) and 110 % of control | endpoint: median survival time, dose: 0.03 mg/kg/injection, schedule: Q04DX003 (ip), vehicle: water 100 % of control | endpoint: median survival time, dose: 0.05 mg/kg/injection, schedule: Q01DX001 (ip), vehicle: saline 98 % of control | endpoint: median survival time, dose: 0.05 mg/kg/injection, schedule: Q01DX002 (ip), vehicle: saline 111 % of control | endpoint: median survival time, dose: 0.06 mg/kg/injection, schedule: Q01DX001 (ip), vehicle: water 100 % of control | endpoint: median survival time, dose: 0.06 mg/kg/injection, schedule: Q04DX003 (ip), vehicle: water 107 % of control | endpoint: median survival time, dose: 0.06 mg/kg/injection, schedule: Q08DX002 (ip), vehicle: water 94 % of control | endpoint: median survival time, dose: 0.08 mg/kg/injection, schedule: Q01DX009 (ip), vehicle: water 108 % of control | endpoint: median survival time, dose: 0.1 mg/kg/injection, schedule: Q01DX001 (ip), vehicle: saline 102 % of control | endpoint: median survival time, dose: 0.12 mg/kg/injection, schedule: Q01DX001 (ip), vehicle: water 111 % of control | endpoint: median survival time, dose: 0.12 mg/kg/injection, schedule: Q08DX002 (ip), vehicle: water 105 % of control | endpoint: median survival time, dose: 0.2 mg/kg/injection, schedule: Q01DX001 (ip), vehicle: saline 109 % of control | endpoint: median survival time, dose: 0.4 mg/kg/injection, schedule: Q01DX001 (ip), vehicle: saline 111 % of control | endpoint: median survival time, dose: 0.5 mg/kg/injection, schedule: Q04DX003 (ip), vehicle: water 96 % of control | endpoint: median survival time, dose: 4.0 micrograms/kg/injection, schedule: Q03HX016 (ip), vehicle: water 94 % of control | endpoint: median survival time, dose: 8.0 micrograms/kg/injection, schedule: Q03HX008 (ip), vehicle: water 100 % of control | endpoint: median survival time, dose: 8.0 micrograms/kg/injection, schedule: Q03HX016 (ip), vehicle: water 111 % of control | endpoint: median survival time, dose: 16.0 micrograms/kg/injection, schedule: Q03HX008 (ip), vehicle: water 111 % of control | endpoint: median survival time, dose: 16.0 micrograms/kg/injection, schedule: Q03HX016 (ip), vehicle: water 100 % of control | endpoint: median survival time, dose: 31.0 micrograms/kg/injection, schedule: Q03HX016 (ip), vehicle: water 100 % of control | endpoint: median survival time, dose: 200.0 micrograms/kg/injection, schedule: Q01DX009 (ip), vehicle: saline 93 % of control
